The structures appear in SMILES notation. Bounds are passed on as bounds.

As a reminder, the IC50 is the concentration that inhibits the measured activity by half.

In the assay the target is T1, human PAR-2 (hPAR-2) receptor expressed in HEK-293 T cells in an endogenous manner (Homo sapiens, UniProt P55085).
T1 construct: human PAR-2 (hPAR-2) receptor expressed in HEK-293 T cells in an endogenous manner; endogenous in cells; host or cells: HEK-293 T cells
T1 sequence (P55085 26-397): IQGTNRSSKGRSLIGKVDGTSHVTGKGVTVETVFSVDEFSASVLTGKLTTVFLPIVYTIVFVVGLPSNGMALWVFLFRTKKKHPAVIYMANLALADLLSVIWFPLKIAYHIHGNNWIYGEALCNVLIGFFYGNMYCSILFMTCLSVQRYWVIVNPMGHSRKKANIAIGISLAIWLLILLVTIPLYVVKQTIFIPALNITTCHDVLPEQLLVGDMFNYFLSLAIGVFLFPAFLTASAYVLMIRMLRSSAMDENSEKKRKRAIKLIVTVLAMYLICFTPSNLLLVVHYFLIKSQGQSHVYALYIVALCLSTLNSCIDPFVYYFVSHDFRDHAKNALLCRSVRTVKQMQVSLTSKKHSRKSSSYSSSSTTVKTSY
As to the kind of experiment: In vitro human PAR-2 functional antagonist activity using calcium assays (Fluo4AM, FLIPR Tetra). The format is cell-based. As to conditions: HEK-293 T cells stimulated by an EC80 of the 2-Furoyl-LIGRLO-NH2 peptide after 10 min incubation with compound; 20 concentrations, duplicate, two independent experiments. The protocol: In vitro human PAR-2 functional antagonist activity using calcium assays
Examples of the present invention were tested successively for their agonist and antagonist activities on human PAR-2 (hPAR-2) receptor expressed in HEK-293 T cells in an endogenous manner. Compounds exert agonist activity if, by themselves in absence of the 2-Furoyl-LIGRLO-NH2 peptide (selective hPAR-2 agonist), they activate PAR-2; they exert antagonist activity if they decrease the action of the 2-Furoyl-LIGRLO-NH2 peptide on the receptor. The assay used to determine compound activity is based on calcium measurement.
Cell Culture: HEK-293 T cells were maintained in Dulbecco's Modified Eagle's Medium supplemented with 10% Foetal Calf Serum, 1% Penicillin/Streptomycin at 37° C./5% CO2. Flasks for tests (F75) are seeded with 6e+06 cells 24 h before the experiment at 37° C./5% CO2.
Calcium assay: Receptor activity was detected by changes in intracellular calcium measured using the fluorescent Ca^2+ sensitive dye, Fluo4AM (Molecular Probes).
The day of the assay, medium was replaced by assay buffer (HBSS 1× (Gibco 14175-053), Hepes 20 mM, MgSO4-7H2O 1 mM, Na2CO3 3.3 mM, CaCl2-2H2O 1.3 mM, 0.5% BSA, Probenecid 2.5 mM, 0.1 mg/mL Pluronic Acid) and complemented with 1 μM Fluo4AM and cells were incubated during 1:30 h at 37° C.
Cells were then detached, resuspended in assay buffer and seeded in 384 wells, transparent-flat bottom black walled plates (2e+04 cells per well). Plates were incubated at +22° C. for 20 min. Compounds stock solutions were prepared in 100% DMSO and dilutions in test buffer were carried out in polypropylene plates with a digital dispenser (D300e, Tecan). Compounds were added to the cells and intracellular Ca^2+ measurements were collected at the same time on FLIPR Tetra® (Molecular Devices) with specific filters (Exc: 470-495 nm/Em: 515-575 nm).
Agonist and antagonist activities of compounds were consecutively evaluated on the same cell plate. Agonist activity was first measured after 10 min incubation with the compound alone. Then, cells were stimulated by an EC80 of the 2-Furoyl-LIGRLO-NH2 peptide and fluorescence was recorded for an additional 5 min. EC80 of the 2-Furoyl-LIGRLO-NH2 peptide was the concentration giving 80% of the maximal 2-Furoyl-LIGRLO-NH2 response. Agonist activities are evaluated in comparison to basal signals evoked by assay buffer or maximal 2-Furoyl-LIGRLO-NH2 response. […] Antagonist activities are evaluated in comparison to basal signals evoked by assay buffer or EC80 of 2-Furoyl-LIGRLO-NH2 alone.
`Cc1cc(N2CCN(C(=O)c3ccc4c(-c5ccc(C(F)(F)F)nc5)cn(CC(C)C)c4n3)C(C)(C)C2)nc(C)c1C(=O)O` [Example 170, 6-(4-(1-isobutyl-3-(6-(trifluoromethyl)pyridin-3-yl)-1H-pyrrolo[2,3-b]pyridine-6-carbonyl)-3,3-dimethylpiperazin-1-yl)-2,4-dimethylnicotinic acid]: the IC50 fell in the range of 20 to 10000 nM.

Consider `COc1cccc(Cn2cc(-c3ccc(Cl)c(F)c3)c3ccc(C(=O)N4CCN(c5cc(C)c(C(=O)O)c(C)n5)CC4(C)C)nc32)n1` [Example 161, 6-(4-(3-(4-chloro-3-fluorophenyl)-1-((6-methoxypyridin-2-yl)methyl)-1H-pyrrolo[2,3-b]pyridine-6-carbonyl)-3,3-dimethylpiperazin-1-yl)-2,4-dimethylnicotinic acid], for which the IC50 was under 20 nM.

On to `CC1(C)C(=O)NCCN1C(=O)c1ccc2c(n1)c(C1CCOCC1)nn2-c1ccc(Cl)c(F)c1` [Example 72, 4-(1-(4-chloro-3-fluorophenyl)-3-(tetrahydro-2H-pyran-4-yl)-1H-pyrazolo[4,3-b]pyridine-5-carbonyl)-3,3-dimethylpiperazin-2-one], for which the IC50 was 20 to 10000 nM.

As to `Cc1cc(N2CCN(C(=O)c3ncc4c(-c5ccc(Cl)c(F)c5)cn(CC(C)C)c4n3)C(C)(C)C2)nc(C)c1C(=O)O` [Example 175, 6-(4-(5-(4-chloro-3-fluorophenyl)-7-isobutyl-7H-pyrrolo[2,3-d]pyrimidine-2-carbonyl)-3,3-dimethylpiperazin-1-yl)-2,4-dimethylnicotinic acid], the IC50 lay in the range of 20 to 10000 nM.

As to `CC(C)Cn1cc(-c2ccc(Cl)cc2F)c2ccc(C(=O)N3CCNC(=O)C3(C)C)nc21` [Example 115, 4-(3-(4-chloro-2-fluorophenyl)-1-isobutyl-1H-pyrrolo[2,3-b]pyridine-6-carbonyl)-3,3-dimethylpiperazin-2-one], the half-inhibitory concentration (IC50) fell in the range of 20 to 10000 nM.

For the molecule `Cc1cc(N2CCN(C(=O)c3ccc4c(-c5ccc(Cl)c(F)c5)cn(C(C)(C)c5ccccn5)c4n3)C(C)(C)C2)nc(C)c1C(=O)O` [Example 131, 6-(4-(3-(4-chloro-3-fluorophenyl)-1-(2-(pyridin-2-yl)propan-2-yl)-1H-pyrrolo[2,3-b]pyridine-6-carbonyl)-3,3-dimethylpiperazin-1-yl)-2,4-dimethylnicotinic acid], the IC50 was under 20 nM.

Take `Cc1cc(N2CCN(C(=O)c3ccc4c(-c5ccc(Cl)c(F)c5)cn(C[C@@H]5CCCO5)c4n3)C(C)(C)C2)nc(C)c1C(=O)O` [Example 211, (S)-6-(4-(3-(4-chloro-3-fluorophenyl)-1-((tetrahydrofuran-2-yl)methyl)-1H-pyrrolo[2,3-b]pyridine-6-carbonyl)-3,3-dimethylpiperazin-1-yl)-2,4-dimethylnicotinic acid]: the IC50 was under 20 nM.

For the molecule `CCOP(=O)(OCC)c1ccc(N2CCN(C(=O)c3ccc4c(-c5ccc(Cl)c(F)c5)cn(C(C)(C)C)c4n3)C(C)(C)C2)nc1` [Example 178, diethyl (6-(4-(1-(tert-butyl)-3-(4-chloro-3-fluorophenyl)-1H-pyrrolo[2,3-b]pyridine-6-carbonyl)-3,3-dimethylpiperazin-1-yl)pyridin-3-yl)phosphonate], the IC50 is 20 to 10000 nM.

Take `Cc1cc(N2CCN(C(=O)c3ccc4c(-c5ccc(Cl)c(F)c5)cn(CC5CC5)c4n3)C(C)(C)C2)nc(C)c1C(=O)O` [Example 160, 6-(4-(3-(4-chloro-3-fluorophenyl)-1-(cyclopropylmethyl)-1H-pyrrolo[2,3-b]pyridine-6-carbonyl)-3,3-dimethylpiperazin-1-yl)-2,4-dimethylnicotinic acid]: the IC50 is under 20 nM.

In the case of `CC(C)(C)n1cc(-c2ccc(Cl)c(F)c2)c2ccc(C(=O)N3CCC4(NC(=O)NC4=O)C(C)(C)C3)nc21` (centres unmarked) [Example 200, 8-(1-(tert-butyl)-3-(4-chloro-3-fluorophenyl)-1H-pyrrolo[2,3-b]pyridine-6-carbonyl)-6,6-dimethyl-1,3,8-triazaspiro[4.5]decane-2,4-dione], the IC50 is 20 to 10000 nM.

Take `CC(C)(C)n1cc(-c2ccc(Cl)c(F)c2)c2ccc(C(=O)N3CC4(CCOC4)C3)nc21` [Example 9, (1-(tert-butyl)-3-(4-chloro-3-fluorophenyl)-1H-pyrrolo[2,3-b]pyridin-6-yl)(6-oxa-2-azaspiro[3.4]octan-2-yl)methanone]: the IC50 is over 10000 nM.

As for `CC(C)Cc1nn(-c2ccc(Cl)c(F)c2)c2ccc(C(=O)N3CCC4(CC3)C(=O)NCN4c3ccccc3)nc12` [Example 94, 8-(1-(4-chloro-3-fluorophenyl)-3-isobutyl-1H-pyrazolo[4,3-b]pyridine-5-carbonyl)-1-phenyl-1,3,8-triazaspiro[4.5]decan-4-one], the IC50 is over 10000 nM.

With `CN(C)C(=O)CC1CCN(C(=O)c2ccc3c(-c4ccc(Cl)c(F)c4)cn(C(C)(C)C)c3n2)CC1` [Example 164, 2-(1-(1-(tert-butyl)-3-(4-chloro-3-fluorophenyl)-1H-pyrrolo[2,3-b]pyridine-6-carbonyl)piperidin-4-yl)-N,N-dimethylacetamide], the IC50 was in the range of 20 to 10000 nM.

As to `CC1(C)C(=O)N(CC(=O)N2CCOCC2)CCN1C(=O)c1ccc2c(-c3ccc(Cl)c(F)c3)cn(C(C)(C)C)c2n1` [Example 8, 4-(1-(tert-butyl)-3-(4-chloro-3-fluorophenyl)-1H-pyrrolo[2,3-b]pyridine-6-carbonyl)-3,3-dimethyl-1-(2-morpholino-2-oxoethyl)piperazin-2-one], the IC50 is under 20 nM.

As for `Cc1cc(N2CCN(C(=O)c3ccc4c(-c5ccc(C(F)(F)F)c(F)c5)cn(C(C)(C)C)c4n3)C(C)(C)C2)nc(C)c1C(=O)O` [Example 220, 6-(4-(1-(tert-butyl)-3-(3-fluoro-4-(trifluoromethyl)phenyl)-1H-pyrrolo[2,3-b]pyridine-6-carbonyl)-3,3-dimethylpiperazin-1-yl)-2,4-dimethylnicotinic acid], the IC50 was under 20 nM.

`Cc1cc(N2CCN(C(=O)c3ccc4c(-c5ccc(Cl)c(F)c5)cn(C(C)C)c4n3)C(C)(C)C2)nc(C)c1C(=O)O` [Example 97, 6-(4-(3-(4-chloro-3-fluorophenyl)-1-isopropyl-1H-pyrrolo[2,3-b]pyridine-6-carbonyl)-3,3-dimethylpiperazin-1-yl)-2,4-dimethyinicotinic acid]: the IC50 was under 20 nM.

Regarding `CC(C)Cn1cc(-c2cc3cc(F)ccc3[nH]2)c2ccc(C(=O)N3CCNC(=O)C3(C)C)nc21` [Example 225, 4-(3-(5-fluoro-1H-indol-2-yl)-1-isobutyl-1H-pyrrolo[2,3-b]pyridine-6-carbonyl)-3,3-dimethylpiperazin-2-one], the IC50 is 20 to 10000 nM.

As to `Cc1cc(N2CCN(C(=O)c3cnc4c(-c5ccc(Cl)c(F)c5)cn(CC(C)C)c4n3)C(C)(C)C2)nc(C)c1C(=O)O` [Example 190, 6-(4-(7-(4-chloro-3-fluorophenyl)-5-isobutyl-5H-pyrrolo[2,3-b]pyrazine-3-carbonyl)-3,3-dimethylpiperazin-1-yl)-2,4-dimethylnicotinic acid], the IC50 was under 20 nM.

`CC1(C)C(=O)NCCN1C(=O)c1ccc2c(-c3ccc(Cl)c(F)c3)cn(CCOCC(F)(F)F)c2n1` [Example 39, 4-(3-(4-chloro-3-fluorophenyl)-1-(2-(2,2,2-trifluoroethoxy)ethyl)-1H-pyrrolo[2,3-b]pyridine-6-carbonyl)-3,3-dimethylpiperazin-2-one]: the IC50 was in the range of 20 to 10000 nM.

For the molecule `Cc1cc(N2CCN(C(=O)c3ccc4c(-c5ccc(Cl)c(F)c5)cn(C(C)(C)C)c4n3)C(C)(C)C2)cc(C)c1C(=O)O` [Example 210, 4-(4-(1-(tert-butyl)-3-(4-chloro-3-fluorophenyl)-1H-pyrrolo[2,3-b]pyridine-6-carbonyl)-3,3-dimethylpiperazin-1-yl)-2,6-dimethylbenzoic acid], the IC50 was under 20 nM.
